Where two headings read alike, the source gives them in different places.
Legend:
uninfected H9 cells = assay: Toxicity to uninfected H9 cells (cell growth); type: cell-based; conditions: Homo sapiens
Description: (§1) HIV inhibition assay. The HIV inhibition was measured as described herein. Briefly, H9 cells, a T cell line, (3.5×10^6 cells/ml) were incubated in the presence or absence of HIV-1 (IIIB strain, 0.01-0.1 TCID50 /cell) for 1 hour at 37° C. Cells were washed thoroughly and resuspended at a final concentration of 2×10^5 cells/ml in the presence or absence of compound. After incubation for 3-4 days at 37° C., the cell density of uninfected cultures was determined by cell count to assess toxicity of the drug. An aliquot of each cell-free supernatant was assayed by p24 antigen ELISA to quantitate the amount of HIV-1 present in the infected cultures. Test compounds were considered to be active at a particular concentration if p24 antigen levels were less than 70% of infected, untreated controls and were nontoxic to uninfected H9 cells.
(§2) HIV Growth Inhibition Assay: The T cell line, H9, and the promonocytic cell line, U937, were maintained separately in continuous culture with complete medium (RPMI 1640 and […] fetal calf serum (FCS) at 5% CO2 and 37° C. Cell lines were used in experiments only when in log phase of growth; whereas, uninfected peripheral blood mononuclear cells (PBMCs) were first stimulated with PHA (1 μg/ml) for 3 days. All cell targets were incubated with HIV-1 (IIIB isolate, TCID50 10 ^4 IU/mi, at a multiplicity of infection of 0.1-0.01 IU/cell) for 1 hour at 37° C. and 5% CO2. The cell lines and PBMCs were washed thoroughly to remove unabsorbed virions and resuspended at 4×10^5 cells/ml in complete medium or complete medium with 10% v/v interleukin […] IL-2, respectively. Aliquots ( ml) were placed in wells of 24-well culture plates containing an equal volume of test compound (diluted in the appropriate culture medium). After incubation for 4 days at 37° C., cell density of uninfected cultures was determined by counting cells in a Coulter counter to assess toxicity of the test compound. A p24 antigen ELISA assay was used to determine the level of virus released in the medium of the HIV-infected cultures. The p24 antigen assay uses a HIV-1 anti-p24 specific monoclonal antibody as the capture antibody coated-on 96-well plates. Following a sample incubation period, rabbit serum containing antibodies for HIV-1 p24 is used to tag any p24 "captured" onto the microtiter well surface. Peroxidase conjugated goat anti-rabbit serum is then used to tag HIV-1 p24 specific rabbit antibodies which have complexed with captured p24. […] The cut-off for the p24 ELISA assay is 12. pg/ml. P24 in the culture medium was quantitated against a standard curve containing known amounts of p24. The effective (EC50) and inhibitory (IC50) concentrations (for anti-HIV activity and cytotoxicity, respectively) were determined graphically. Both the EC50 and IC50 values were calculated by plotting drug concentration versus percent inhibition, and then identifying a 50% inhibition value from the graph.

[1] = tested on: HIV-1 replication in H9 cells; assay: HIV-1 replication inhibition in acutely infected H9 lymphocytes (p24 antigen ELISA); type: cell-based, HIV-1 (IIIB strain)
Description: as §1, §2

[2] = tested on: chronically HIV-1 infected ACH-2 cells; assay: Virus expression from chronically HIV-1 infected T cell line ACH-2 (p24 antigen ELISA); type: cell-based; conditions: ACH-2 cells; 4320 min
Description: Effects of suksdorfin analogs on Chronically HIV-1 infected cells. The experimental design is as follows: The phorbol ester, PMA (10^-8 M) and various concentrations of suksdorfin were either added or not added to both the chronically HIV-1 infected T cell line (ACH-2) and to the chronically HIV-1 infected monocytic cell line (U1). Cell-free supernatant was collected 72 hours post culture for p24 antigen ELISA.
Results (Table 11) from adding compound 16 to the chronically HIV-infected T cell line, ACH-2, according to methods in above examples. ACH-2 are a chronically HIV-1 infected T cell line. It was derived from A3.01 cells which is a subclone of the CEM cell line. The data below indicates the following points:
Chronically HIV-1 infected cell lines. HIV-1 chronically infected T cell line, ACH-2^12, and HIV-1 chronically infected promonocytic cell line, U1 13, were continuously maintained in RPMI 1640 with 10% fetal calf serum (FCS). For experiments, the cell lines were only used in the […] of growth. Cells (0.5×10^6 cells/well) and either various concentrations of suksdorfin or medium alone were added to 24-well plates in the presence or absence of PMA (10^-8 M). After 72 hours at 37° C. and 5% CO2, an aliquot of the cell-free supernatants were collected and analyzed for p24 antigen by ELISA (see below for details of p24 antigen ELISA).

[3] = IC50 for cell growth inhibition divided by EC50 for HIV inhibition, H9
[4] = Human immunodeficiency virus 1, H9, Table 3, H9 lymphocytes, read-out: EC50
[5] = H9, Table 14, concentration which inhibits uninfected cell growth by 50%, read-out: IC50 (μM)^a
[6] = H9, concentration which inhibits uninfected cell growth by 50%, read-out: IC50
[7] = Human immunodeficiency virus 1, H9, acutely infected H9 cells, concentration which inhibits viral replication by 50%, Inactive = No suppression of HIV-1 replication in H9 cells, read-out: EC50
[8] = Human immunodeficiency virus 1, Table 14, concentration which inhibits viral replication by 50%, Inactive = No suppression of HIV-1 replication in H9 cells, read-out: IC50 (μM)^b
[9] = Table 14, concentration which inhibits viral replication by 50%, Inactive = No suppression of HIV-1 replication in H9 cells
[10] = acutely infected H9 cells, concentration which inhibits viral replication by 50%, Inactive = No suppression of HIV-1 replication in H9 cells
[11] = H9, Table 3, H9 lymphocytes, read-out: IC50

CC(C)=CCOc1c2occc2cc2ccc(=O)oc12 [Imperatorin, imperatorin, reference compound]
IC50 (uninfected H9 cells; H9, concentration which inhibits uninfected cell growth by 50%): > 74.1 µM | IC50 (uninfected H9 cells; H9, read-out: IC50 (μM)^a, Table 14, concentration which inhibits uninfected cell growth by 50%): > 74.1 µM | EC50 ([1]; Human immunodeficiency virus 1, H9, acutely infected H9 cells, concentration which inhibits viral replication by 50%, Inactive = No suppression of HIV-1 replication in H9 cells): 11.1 µM | IC50 ([1]; Human immunodeficiency virus 1, H9, read-out: IC50 (μM)^b): 11.1 µM | Therapeutic Index [1, 3]: > 6.7 | Therapeutic Index ([1]; Table 14): > 6.7

CC(=O)O[C@@H]1c2c(ccc3ccc(=O)oc23)OC(C)(C)[C@@H]1OC(C)=O (relative stereo) [Compound 12]
EC50 [1, 4]: > 289 µM

CCC(C)C(=O)OC1c2c(ccc3ccc(=O)oc23)OC(C)(C)C1OC(=O)C(C)CC (centres unmarked) [14 and 15]
EC50 [1, 4]: 7 µM

CCC(C)C(=O)OC1c2c(ccc3ccc(=O)oc23)OC(C)(C)C1O (centres unmarked) [10 and 11]
EC50 [1, 4]: > 57.8 µM

CC(C)CC(=O)OC1Cc2c(ccc3ccc(=O)oc23)OC1(C)C (racemic) [Compound 26]
EC50 [1, 4]: > 12 µM

CC(C)CC(=O)O[C@@H]1c2c(ccc3ccc(=O)oc23)OC(C)(C)[C@@H]1OC(=O)CC(C)C (relative stereo) [Compound 13]
EC50 ([1]; Human immunodeficiency virus 1, H9, Table 3, H9 lymphocytes): > 232 µM

C/C=C(/C)C(=O)OC(C)(C)[C@@H]1Cc2c(ccc3ccc(=O)oc23)O1 [Columbianadin, columbianadin, reference compound]
IC50 (uninfected H9 cells; [5]): > 6.1 µM | IC50 (uninfected H9 cells; [6]): > 6.1 µM | EC50 [1, 7]: 4.6 µM | IC50 [1, 8]: 4.6 µM | Therapeutic Index [1, 3]: > 1.3 | Therapeutic Index ([1]; Table 14): > 1.3

CCCCCCCCCCCCCC(=O)O[C@@H]1[C@@H](C)[C@@]2(O)[C@@H](C=C(CO)C[C@]3(O)C(=O)C(C)=C[C@@H]23)[C@@H]2C(C)(C)[C@]12OC(C)=O [PMA, phorbol 12-myristate 13-acetate, reference compound]
induction of virus replication compared to medium alone [2]: 27 fold

CC(=O)O[C@@H]1[C@@H](OC(=O)c2cccc(Cl)c2)c2c(ccc3ccc(=O)oc23)OC1(C)C (relative stereo) [Compound 27]
EC50 [1, 4]: > 45 µM

COc1cc2cc(Oc3ccc4ccc(=O)oc4c3)c(=O)oc2cc1O [Daphnoretin, daphnoretin, reference compound]
IC50 (μM)^b [1, 9]: Inactive | anti-HIV activity in H9 cells (in words) ([1]; acutely infected H9 cells): no activity | EC50 [1, 10]: Inactive

CC(C)CC(=O)O[C@@H]1[C@@H](OC(=O)c2cccc(Cl)c2)c2c(ccc3ccc(=O)oc23)OC1(C)C (relative stereo) [Compound 28]
IC50 (uninfected H9 cells; [11]): 10 µM | EC50 [1, 4]: 8.3 µM | Therapeutic Index ([1]; Table 3, H9 lymphocytes): 1.2

CC(=O)OC1Cc2c(ccc3ccc(=O)oc23)OC1(C)C (racemic) [Compound 25]
EC50 [1, 4]: > 69 µM

CC1(C)Oc2ccc3ccc(=O)oc3c2[C@@H](OC(=O)[C@@]23CC[C@@](C)(C(=O)O2)C3(C)C)[C@@H]1OC(=O)[C@@]12CC[C@@](C)(C(=O)O1)C2(C)C [Compound 45, 3', 4'-Di-O-(-)-Camphanoyl-(+)-trans-Khellactone]
IC50 (uninfected H9 cells; [11]): < 32 µM | IC50 (uninfected H9 cells; H9, Table 17, uninfected H9 cell growth, read-out: IC50): > 32 µM | EC50 [1, 4]: 32 µM | EC50 ([1]; Human immunodeficiency virus 1, H9, Table 17, acutely infected H9 lymphocytes, read-out: EC50): 32 µM | Therapeutic Index ([1]; Table 3, H9 lymphocytes): > 1 | Therapeutic Index ([1]; Table 17, H9): > 1 | anti-HIV activity in H9 cells (in words) ([1]; acutely infected H9 cells): much less activity than that of compound 16 | anti-HIV activity in H9 cells (in words) ([1]; acutely infected H9 cells, listed as 5): much less anti-HIV activity than 2

COc1c2ccoc2cc2oc(=O)ccc12 [Bergapten, bergapten, reference compound]
IC50 (uninfected H9 cells; [5]): > 92.6 µM | IC50 (uninfected H9 cells; [6]): > 92.6 µM | EC50 [1, 7]: 30.1 µM | IC50 [1, 8]: 30.1 µM | Therapeutic Index [1, 3]: > 3.1 | Therapeutic Index ([1]; Table 14): > 3.1

CC1(C)O[C@H]1COc1c2ccoc2cc2oc(=O)ccc12 [Oxypeucedanin, oxypeucedanin, reference compound]
IC50 (uninfected H9 cells; [5]): > 69.9 µM | IC50 (uninfected H9 cells; [6]): > 69.9 µM | EC50 [1, 7]: 31.5 µM | IC50 [1, 8]: 31.5 µM | Therapeutic Index [1, 3]: > 2.2 | Therapeutic Index ([1]; Table 14): > 2.2

CC1(C)Oc2ccc3ccc(=O)oc3c2[C@H](OC(=O)c2cccc(Cl)c2)[C@H]1OCc1ccccc1 (relative stereo) [Compound 30]
EC50 [1, 4]: 6.1 µM

CC(C)=CCOc1c2ccoc2cc2oc(=O)ccc12 [Isoimperatorin, isoimperatorin, reference compound]
IC50 (uninfected H9 cells; [5]): > 185 µM | IC50 (uninfected H9 cells; [6]): > 185 µM | EC50 [1, 7]: 40.7 µM | IC50 [1, 8]: 40.7 µM | Therapeutic Index [1, 3]: > 4.6 | Therapeutic Index ([1]; Table 14): > 4.6

CO[C@@H]1[C@@H](OC(=O)c2cccc(Cl)c2)c2c(ccc3ccc(=O)oc23)OC1(C)C (relative stereo) [Compound 29]
IC50 (uninfected H9 cells; [11]): > 48 µM | EC50 [1, 4]: 241 µM | Therapeutic Index ([1]; Table 3, H9 lymphocytes): > 0.2

CCC(C)C(=O)OC1C(O)c2c(ccc3ccc(=O)oc23)OC1(C)C (centres unmarked) [8 and 9]
EC50 [1, 4]: > 57.8 µM

CC(C)(O[C@@H]1O[C@H](CO)[C@@H](O)[C@H](O)[C@H]1O)[C@H]1Cc2cc3ccc(=O)oc3cc2O1 [Nodakenin, nodakenin, reference compound]
IC50 (μM)^b [1, 9]: Inactive | EC50 [1, 10]: Inactive

CC1(C)Oc2ccc3ccc(=O)oc3c2[C@H](OC(=O)[C@@]23CC[C@@](C)(C(=O)O2)C3(C)C)[C@H]1OC(=O)[C@@]12CC[C@@](C)(C(=O)O1)C2(C)C [Compound 44, 31'4'-Di-O-(-)-Camphanoyl-(-)-trans-Khellactone]
Therapeutic Index ([1]; Table 3, H9 lymphocytes): > 1 | Therapeutic Index ([1]; Table 14): 1.3 | Therapeutic Index ([1]; Table 17, H9): > 1 | anti-HIV activity in H9 cells (in words) ([1]; acutely infected H9 cells): much less activity than that of compound 16 | anti-HIV activity in H9 cells (in words) ([1]; acutely infected H9 cells, listed as 4): much less anti-HIV activity than 2

CC(C)(O)[C@H]1Cc2cc3ccc(=O)oc3cc2O1 [Nodakenetin, nodakenetin, reference compound]
IC50 (μM)^b [1, 9]: Inactive | EC50 [1, 10]: Inactive

acetylnodakenin [reference compound]
IC50 (μM)^b [1, 9]: Inactive | EC50 [1, 10]: Inactive

— patent US6319929A, “Suksdorfin analogs, compositions thereof, and methods for making and using thereof” (priority 1998, dated 2001)
